How the values were obtained:
human OX1 receptors = target: T1, human OX1 receptors (Homo sapiens, UniProt O43613); assay: Calcium mobilization Ke; type: cell-based; conditions: for OX1 potency (in words): qualitative statement
T1 sequence (O43613 1-425): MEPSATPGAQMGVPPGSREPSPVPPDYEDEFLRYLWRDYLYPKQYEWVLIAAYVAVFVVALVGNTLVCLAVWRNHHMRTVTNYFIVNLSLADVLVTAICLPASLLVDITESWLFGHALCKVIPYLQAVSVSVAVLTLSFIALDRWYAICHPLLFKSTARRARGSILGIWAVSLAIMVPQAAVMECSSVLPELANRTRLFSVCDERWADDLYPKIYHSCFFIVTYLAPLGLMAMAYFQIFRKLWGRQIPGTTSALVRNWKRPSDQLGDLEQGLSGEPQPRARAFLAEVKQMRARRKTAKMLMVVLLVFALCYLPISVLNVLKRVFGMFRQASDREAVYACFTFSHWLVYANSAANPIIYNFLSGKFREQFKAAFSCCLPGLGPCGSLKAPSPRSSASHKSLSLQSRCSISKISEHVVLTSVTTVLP

human OX2 receptors = target: T2, human OX2 receptors (Homo sapiens, UniProt O43614); assay: Calcium mobilization Ke; type: cell-based
T2 sequence (O43614 1-444): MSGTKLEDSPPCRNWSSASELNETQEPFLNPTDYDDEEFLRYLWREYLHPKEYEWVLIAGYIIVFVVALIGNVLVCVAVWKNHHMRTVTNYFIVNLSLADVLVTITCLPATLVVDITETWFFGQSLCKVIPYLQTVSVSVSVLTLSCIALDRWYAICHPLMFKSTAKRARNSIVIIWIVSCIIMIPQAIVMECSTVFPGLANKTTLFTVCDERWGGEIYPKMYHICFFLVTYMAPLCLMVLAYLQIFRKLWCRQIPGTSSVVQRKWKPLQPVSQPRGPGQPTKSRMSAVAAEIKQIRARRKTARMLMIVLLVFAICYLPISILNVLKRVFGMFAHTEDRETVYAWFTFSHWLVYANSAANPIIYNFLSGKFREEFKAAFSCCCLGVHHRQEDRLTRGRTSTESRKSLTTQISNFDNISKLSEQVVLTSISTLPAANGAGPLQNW

OX2 receptor = conditions: cited from earlier work
OX1 = conditions: cited from earlier work
[1] = cited from earlier work

SMILES	Kb (human OX1 receptors) [µM]	Kb (human OX2 receptors) [µM]	OX1 potency (in words) (human OX1 receptors)	other results
COc1ccc2c(c1)C(Cc1ccc(OC)c(OC)c1)N(CC(=O)NCc1ccccc1)CC2 (stereo not shown) [10a, N-Benzyl-2-{1-[(3,4-dimethoxyphenyl)methyl]-7-methoxy-1,2,3,4-tetrahydroisoquinolin-2-yl}acetamide]	0.512 ± 0.036	1.68 ± 0.33	–	–
CCCOc1ccc2c(c1)C(Cc1ccc(OC)c(OC)c1)N(CC(=O)NCc1ccccc1)CC2 (stereo not shown) [10c, N-Benzyl-2-{1-[(3,4-dimethoxyphenyl)methyl]-7-propoxy-1,2,3,4-tetrahydroisoquinolin-2-yl}acetamide]	0.0237 ± 0.0079	2.55 ± 0.26	–	mode of antagonism at OX1 (human OX1 receptors; 15 minute pre-incubation): competitive antagonism; selectivity for OX1 over OX2 (human OX1 receptors; OX2 versus OX1 Ke): > 100 fold
COc1ccc(CC2c3ccc(OS(C)(=O)=O)cc3CCN2CC(=O)NCc2ccccc2)cc1OC (stereo not shown) [18a, 2-[(Benzylcarbamoyl)methyl]-1-[(3,4-dimethoxyphenyl)methyl]-1,2,3,4-tetrahydroisoquinolin-6-yl methanesulfonate]	> 10	1.33 ± 0.26	–	–
COC(=O)Nc1ccc2c(c1)CCN(CC(=O)NCc1ccccc1)C2Cc1ccc(OC)c(OC)c1 (stereo not shown) [23a, Methyl N-{2-[(benzylcarbamoyl)methyl]-1-[(3,4-dimethoxyphenyl)methyl]-1,2,3,4-tetrahydroisoquinolin-6-yl}carbamate]	2.4 ± 0.32	> 10	slight potency	–
CCOC(=O)Nc1ccc2c(c1)CCN(CC(=O)NCc1ccccc1)C2Cc1ccc(OC)c(OC)c1 (stereo not shown) [23b, Ethyl N-{2-[(benzylcarbamoyl)methyl]-1-[(3,4-dimethoxyphenyl)methyl]-1,2,3,4-tetrahydroisoquinolin-6-yl}carbamate]	> 10	> 10	not active	–
CCOC(=O)CNc1ccc2c(c1)CCN(CC(=O)NCc1ccccc1)C2Cc1ccc(OC)c(OC)c1 (stereo not shown) [26a, Ethyl 2-({2-[(benzylcarbamoyl)methyl]-1-[(3,4-dimethoxyphenyl)methyl]-1,2,3,4-tetrahydroisoquinolin-6-yl}amino)acetate]	0.427 ± 0.069	–	some activity	–
CCOC(=O)C(C)Nc1ccc2c(c1)CCN(CC(=O)NCc1ccccc1)C2Cc1ccc(OC)c(OC)c1 (stereo not shown) [26b, Ethyl 2-({2-[(benzylcarbamoyl)methyl]-1-[(3,4-dimethoxyphenyl)methyl]-1,2,3,4-tetrahydroisoquinolin-6-yl}amino)propanoate]	> 10	–	–	–
CCOC(=O)CCNc1ccc2c(c1)CCN(CC(=O)NCc1ccccc1)C2Cc1ccc(OC)c(OC)c1 (stereo not shown) [26c, Ethyl 3-({2-[(benzylcarbamoyl)methyl]-1-[(3,4-dimethoxyphenyl)methyl]-1,2,3,4-tetrahydroisoquinolin-6-yl}amino)propanoate]	0.809 ± 0.2	–	some activity	–
CCOC(=O)CCCNc1ccc2c(c1)CCN(CC(=O)NCc1ccccc1)C2Cc1ccc(OC)c(OC)c1 (stereo not shown) [26d, Ethyl 4-({2-[(benzylcarbamoyl)methyl]-1-[(3,4-dimethoxyphenyl)methyl]-1,2,3,4-tetrahydroisoquinolin-6-yl}amino)butanoate]	0.591 ± 0.067	> 10	some activity	–
COc1ccc(CC2c3ccc(NCCCC(=O)OC(C)(C)C)cc3CCN2CC(=O)NCc2ccccc2)cc1OC (stereo not shown) [26e, Tert-butyl 4-({2-[(benzylcarbamoyl)methyl]-1-[(3,4-dimethoxyphenyl)methyl]-1,2,3,4-tetrahydroisoquinolin-6-yl}amino)butanoate]	1.01 ± 0.2	–	–	mode of antagonism at OX1 (human OX1 receptors; 15 minute pre-incubation): insurmountable antagonism; mode of antagonism at OX1 (human OX1 receptors; pre-incubation increased to 45 min and 60 min): competitive antagonists; mode of antagonism at OX1 (human OX1 receptors; simultaneous addition of antagonist and Orexin A): competitive antagonists
COC(=O)CCCCNc1ccc2c(c1)CCN(CC(=O)NCc1ccccc1)C2Cc1ccc(OC)c(OC)c1 (stereo not shown) [26f, Methyl 5-({2-[(benzylcarbamoyl)methyl]-1-[(3,4-dimethoxyphenyl)methyl]-1,2,3,4-tetrahydroisoquinolin-6-yl}amino)pentanoate]	1.6 ± 0.19	–	–	–
CCOC(=O)CCCCCCNc1ccc2c(c1)CCN(CC(=O)NCc1ccccc1)C2Cc1ccc(OC)c(OC)c1 (stereo not shown) [26g, Ethyl 7-({2-[(benzylcarbamoyl)methyl]-1-[(3,4-dimethoxyphenyl)methyl]-1,2,3,4-tetrahydroisoquinolin-6-yl}amino)heptanoate]	> 10	–	–	–
COc1ccc(CC2c3ccc(NCC(=O)N(C)C)cc3CCN2CC(=O)NCc2ccccc2)cc1OC (stereo not shown) [26h, 2-({2-[(Benzylcarbamoyl)methyl]-1-[(3,4-dimethoxyphenyl)methyl]-1,2,3,4-tetrahydroisoquinolin-6-yl}amino)-N,N-dimethylacetamide]	> 10	–	large decline in potency	–
COc1ccc(CC2c3ccc(NC(C)=O)cc3CCN2CC(=O)NCc2ccccc2)cc1OC (stereo not shown) [28a, N-Benzyl-2-{1-[(3,4-dimethoxyphenyl)methyl]-6-acetamido-1,2,3,4-tetrahydroisoquinolin-2-yl}acetamide]	> 10	–	–	–
CCCCCC(=O)Nc1ccc2c(c1)CCN(CC(=O)NCc1ccccc1)C2Cc1ccc(OC)c(OC)c1 (stereo not shown) [28b, N-{2-[(Benzylcarbamoyl)methyl]-1-[(3,4-dimethoxyphenyl)methyl]-1,2,3,4-tetrahydroisoquinolin-6-yl}hexanamide]	> 10	> 10	–	–
COc1ccc(CC2c3ccc(NC(=O)c4ccccc4)cc3CCN2CC(=O)NCc2ccccc2)cc1OC (stereo not shown) [28c, N-{2-[(Benzylcarbamoyl)methyl]-1-[(3,4-dimethoxyphenyl)methyl]-1,2,3,4-tetrahydroisoquinolin-6-yl}benzamide]	> 10	–	–	–
COc1ccc(CC2c3ccc(NC(=O)Nc4ccccc4)cc3CCN2CC(=O)NCc2ccccc2)cc1OC (stereo not shown) [28d, N-Benzyl-2-{1-[(3,4-dimethoxyphenyl)methyl]-6-[(phenylcarbamoyl)amino]-1,2,3,4-tetrahydroisoquinolin-2-yl}acetamide]	> 10	–	no significant potency	–
CCCCCCNC(=O)Nc1ccc2c(c1)CCN(CC(=O)NCc1ccccc1)C2Cc1ccc(OC)c(OC)c1 (stereo not shown) [28e, N-Benzyl-2-{1-[(3,4-dimethoxyphenyl)methyl]-6-[(hexylcarbamoyl)amino]-1,2,3,4-tetrahydroisoquinolin-2-yl}acetamide]	5.23 ± 0.68	–	no significant potency	–
CNC(=O)[C@@H](c1ccccc1)N1CCc2cc(OC)c(OC)cc2[C@@H]1CCc1ccc(C(F)(F)F)cc1 [Almorexant, almorexant]	–	–	–	mode of antagonism at the OX2 receptor (OX2 receptor): insurmountable antagonist
Cc1nc2ccc(NC(=O)Nc3ccnc4cccnc34)cc2o1 [SB-334867]	–	–	–	selectivity for OX1 over OX2 (OX1): ~ 50 fold
COc1cc2c(cc1OC)CN(C(=O)[C@@H](NCc1ccncc1)C(C)(C)C)CC2 [TCS-OX2-29]	–	–	–	effect on cocaine self-administration [1]: no effect; effect on cue-induced reinstatement ([1]; cocaine): no effect
CCC(=O)Oc1ccc2c(c1)CCN(CC(=O)NCc1ccccc1)C2Cc1ccc(OC)c(OC)c1 (stereo not shown) [compound 19, 2-[(Benzylcarbamoyl)methyl]-1-[(3,4-dimethoxyphenyl)methyl]-1,2,3,4-tetrahydroisoquinolin-6-yl propanoate]	> 10	1.29 ± 0.13	–	–
COc1ccc(CC2c3ccc(NS(C)(=O)=O)cc3CCN2CC(=O)NCc2ccccc2)cc1OC (stereo not shown) [compound 27, N-Benzyl-2-{1-[(3,4-dimethoxyphenyl)methyl]-6-methanesulfonamido-1,2,3,4-tetrahydroisoquinolin-2-yl}acetamide]	> 10	–	no significant potency	–
